Measurements published in ChEMBL document CHEMBL3414495, “Multi-target tacrine-coumarin hybrids: cholinesterase and monoamine oxidase B inhibition properties against Alzheimer's disease” (Eur J Med Chem, 2015).

Legend:
[1] = target: T1, Amine oxidase [flavin-containing] A (Homo sapiens, UniProt P21397); test: Inhibition of human MAO-A using p-tyramine as substrate assessed as H2O2 production by amplex red assay
T1 sequence (P21397 whole entry): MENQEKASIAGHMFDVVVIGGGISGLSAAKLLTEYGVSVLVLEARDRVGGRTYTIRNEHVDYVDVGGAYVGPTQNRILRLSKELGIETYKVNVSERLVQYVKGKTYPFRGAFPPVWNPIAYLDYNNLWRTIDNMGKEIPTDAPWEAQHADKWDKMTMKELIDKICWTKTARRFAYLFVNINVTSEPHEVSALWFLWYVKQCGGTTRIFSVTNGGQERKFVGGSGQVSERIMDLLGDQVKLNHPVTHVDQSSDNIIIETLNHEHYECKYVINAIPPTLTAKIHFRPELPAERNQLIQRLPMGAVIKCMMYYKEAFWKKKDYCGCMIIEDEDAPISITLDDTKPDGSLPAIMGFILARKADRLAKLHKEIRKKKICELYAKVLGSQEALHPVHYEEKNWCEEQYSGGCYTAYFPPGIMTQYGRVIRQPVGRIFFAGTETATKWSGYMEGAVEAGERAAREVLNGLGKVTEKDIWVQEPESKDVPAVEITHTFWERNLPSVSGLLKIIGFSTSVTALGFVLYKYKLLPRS

[2] = target: T2, Amine oxidase [flavin-containing] B (Homo sapiens, UniProt P27338)
T2 sequence (P27338 whole entry): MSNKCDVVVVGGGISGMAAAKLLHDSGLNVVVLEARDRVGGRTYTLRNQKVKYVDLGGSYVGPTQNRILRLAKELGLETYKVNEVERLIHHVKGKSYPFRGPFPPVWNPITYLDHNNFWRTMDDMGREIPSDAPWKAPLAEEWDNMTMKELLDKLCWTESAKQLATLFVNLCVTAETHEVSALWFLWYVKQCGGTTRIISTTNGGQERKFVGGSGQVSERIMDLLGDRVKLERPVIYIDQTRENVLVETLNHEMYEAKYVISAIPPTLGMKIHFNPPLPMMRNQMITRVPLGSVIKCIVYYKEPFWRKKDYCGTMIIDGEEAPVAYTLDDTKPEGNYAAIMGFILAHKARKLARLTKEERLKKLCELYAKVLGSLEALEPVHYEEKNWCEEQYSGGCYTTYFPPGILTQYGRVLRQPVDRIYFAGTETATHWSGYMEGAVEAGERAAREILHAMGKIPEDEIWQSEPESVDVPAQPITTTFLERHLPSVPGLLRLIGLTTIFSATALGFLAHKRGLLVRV
Description: Inhibition of human MAO-B using p-tyramine as substrate assessed as H2O2 production by amplex red assay

Acetylcholinesterase [3] = target: T3, Acetylcholinesterase (Electrophorus electricus, UniProt O42275)
T3 sequence (O42275 whole entry): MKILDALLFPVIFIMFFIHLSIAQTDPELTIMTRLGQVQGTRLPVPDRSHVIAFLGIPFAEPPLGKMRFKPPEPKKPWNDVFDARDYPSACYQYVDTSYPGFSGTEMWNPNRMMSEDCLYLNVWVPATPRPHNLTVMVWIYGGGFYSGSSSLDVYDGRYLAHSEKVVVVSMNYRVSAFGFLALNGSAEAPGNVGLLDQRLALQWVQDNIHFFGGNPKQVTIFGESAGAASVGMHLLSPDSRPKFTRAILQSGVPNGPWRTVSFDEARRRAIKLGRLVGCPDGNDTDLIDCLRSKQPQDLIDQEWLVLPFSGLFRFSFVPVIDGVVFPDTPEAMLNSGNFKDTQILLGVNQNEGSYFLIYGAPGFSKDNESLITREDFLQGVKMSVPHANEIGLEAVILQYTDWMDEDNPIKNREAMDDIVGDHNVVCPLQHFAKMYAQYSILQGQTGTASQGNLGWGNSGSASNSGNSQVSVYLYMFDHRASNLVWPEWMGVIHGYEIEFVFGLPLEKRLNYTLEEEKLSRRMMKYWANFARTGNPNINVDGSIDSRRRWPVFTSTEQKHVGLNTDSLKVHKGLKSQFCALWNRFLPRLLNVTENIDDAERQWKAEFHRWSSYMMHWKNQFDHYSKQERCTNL
Description: Inhibition of electric eel AChE using acetylthiocholine iodide as substrate incubated for 6 mins prior to substrate addition measured after 60 to 180 secs by Ellman method

in vitro = conditions: PAMPA
Description: Permeability of the compound after 16 hrs by PAMPA

Homo sapiens = organism: Homo sapiens; test: Selectivity index, ratio of IC50 for human MAO-A to IC50 for human MAO-B
Cholinesterase [4] = target: Cholinesterase (Equus caballus, UniProt P81908)
Cholinesterase (Equus caballus, UniProt P81908), sequence (P81908 whole entry): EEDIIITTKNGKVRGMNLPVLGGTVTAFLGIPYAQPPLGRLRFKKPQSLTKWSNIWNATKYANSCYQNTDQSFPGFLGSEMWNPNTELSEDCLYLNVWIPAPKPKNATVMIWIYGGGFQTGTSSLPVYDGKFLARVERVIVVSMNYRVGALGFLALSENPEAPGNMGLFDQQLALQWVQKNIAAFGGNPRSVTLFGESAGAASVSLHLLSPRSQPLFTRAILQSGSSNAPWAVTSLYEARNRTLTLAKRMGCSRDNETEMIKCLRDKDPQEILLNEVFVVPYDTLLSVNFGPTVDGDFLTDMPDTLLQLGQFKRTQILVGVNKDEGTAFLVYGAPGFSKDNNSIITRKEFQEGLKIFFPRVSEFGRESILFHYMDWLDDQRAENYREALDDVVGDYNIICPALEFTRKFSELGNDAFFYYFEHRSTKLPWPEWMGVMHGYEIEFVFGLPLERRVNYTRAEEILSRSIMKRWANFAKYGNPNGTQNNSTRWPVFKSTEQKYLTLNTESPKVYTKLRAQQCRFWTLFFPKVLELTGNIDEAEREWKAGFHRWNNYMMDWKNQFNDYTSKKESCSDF
Description: Inhibition of horse serum BuChE using S-butyrylthiocholine iodide as substrate incubated for 6 mins prior to substrate addition measured after 60 to 180 secs by Ellman method

[5] = target: T1, Amine oxidase [flavin-containing] A; test: Inhibition of human MAO-A using p-tyramine as substrate assessed as H2O2 production at 200 uM by amplex red assay
[6] = target: T1, Amine oxidase [flavin-containing] A; test: Inhibition of human MAO-A using p-tyramine as substrate assessed as H2O2 production at 100 uM by amplex red assay
[7] = target: T2, Amine oxidase [flavin-containing] B; test: Inhibition of human MAO-B using p-tyramine as substrate assessed as H2O2 production at 200 uM by amplex red assay
Acetylcholinesterase [8] = target: Acetylcholinesterase (Homo sapiens, UniProt P22303); test: Inhibition of human AChE using acetylthiocholine iodide as substrate incubated for 6 mins prior to substrate addition measured after 60 to 180 secs by Ellman method
Acetylcholinesterase (Homo sapiens, UniProt P22303), sequence (P22303 whole entry): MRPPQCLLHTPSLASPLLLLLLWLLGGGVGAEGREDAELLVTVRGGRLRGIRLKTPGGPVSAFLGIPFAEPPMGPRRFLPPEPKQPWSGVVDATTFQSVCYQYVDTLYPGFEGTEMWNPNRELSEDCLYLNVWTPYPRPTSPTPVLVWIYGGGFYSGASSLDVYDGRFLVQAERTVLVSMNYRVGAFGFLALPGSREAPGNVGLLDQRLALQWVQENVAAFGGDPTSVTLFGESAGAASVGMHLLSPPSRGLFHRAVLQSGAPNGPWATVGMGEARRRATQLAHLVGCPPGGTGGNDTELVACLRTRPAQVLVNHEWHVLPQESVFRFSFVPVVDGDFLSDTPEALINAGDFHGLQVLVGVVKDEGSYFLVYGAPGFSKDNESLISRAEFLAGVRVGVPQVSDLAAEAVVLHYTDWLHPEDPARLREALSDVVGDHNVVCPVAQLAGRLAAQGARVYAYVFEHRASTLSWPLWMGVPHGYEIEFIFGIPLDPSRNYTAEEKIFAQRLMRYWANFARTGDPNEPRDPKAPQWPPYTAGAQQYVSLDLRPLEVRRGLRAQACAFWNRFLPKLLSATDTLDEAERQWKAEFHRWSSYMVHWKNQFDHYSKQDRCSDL

Cholinesterase [9] = target: Cholinesterase (Homo sapiens, UniProt P06276); test: Inhibition of human BuChE using S-butyrylthiocholine iodide as substrate incubated for 6 mins prior to substrate addition measured after 60 to 180 secs by Ellman method
Cholinesterase (Homo sapiens, UniProt P06276), sequence (P06276 whole entry): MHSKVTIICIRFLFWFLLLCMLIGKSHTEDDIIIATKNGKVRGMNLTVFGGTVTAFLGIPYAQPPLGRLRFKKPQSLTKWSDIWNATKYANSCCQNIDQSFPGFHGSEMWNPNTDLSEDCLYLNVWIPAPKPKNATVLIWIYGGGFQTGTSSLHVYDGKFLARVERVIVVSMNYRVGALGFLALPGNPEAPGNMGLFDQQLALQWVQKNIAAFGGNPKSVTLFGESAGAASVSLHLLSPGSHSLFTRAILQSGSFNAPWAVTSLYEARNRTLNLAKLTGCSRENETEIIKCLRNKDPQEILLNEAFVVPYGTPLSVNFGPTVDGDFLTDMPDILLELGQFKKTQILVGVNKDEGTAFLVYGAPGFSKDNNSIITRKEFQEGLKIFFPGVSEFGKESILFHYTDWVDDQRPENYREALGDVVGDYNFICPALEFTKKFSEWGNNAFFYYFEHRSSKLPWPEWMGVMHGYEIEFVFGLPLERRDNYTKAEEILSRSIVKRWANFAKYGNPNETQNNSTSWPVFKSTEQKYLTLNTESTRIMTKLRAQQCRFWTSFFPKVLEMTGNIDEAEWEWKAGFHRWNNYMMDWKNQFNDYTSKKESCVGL

Acetylcholinesterase [10] = target: T3, Acetylcholinesterase; test: Mixed-type inhibition of electric eel AChE by Lineweaver-Burk plot analysis
[11] = Cytotoxicity against human SH-SY5Y cells assessed as cell viability at 1.63 uM after 24 hrs by MTT assay; type: cell-based; conditions: read-out: Activity
[12] = Cytotoxicity against human SH-SY5Y cells assessed as cell viability at 13 uM after 24 hrs by MTT assay; type: cell-based; conditions: read-out: Activity
[13] = target: T2, Amine oxidase [flavin-containing] B; test: Competitive inhibition of human MAO-B using p-tyramine as substrate at 0.5 to 0.125 uM by double reciprocal Lineweaver-Burk plot analysis
[14] = Cytotoxicity against human SH-SY5Y cells assessed as cell viability at 3.25 uM after 24 hrs by MTT assay; type: cell-based; conditions: read-out: Activity
[15] = Cytotoxicity against human SH-SY5Y cells assessed as cell viability at 0.81 uM after 24 hrs by MTT assay; type: cell-based; conditions: read-out: Activity
[16] = target: T2, Amine oxidase [flavin-containing] B; test: Reversible inhibition of human MAO-B at 100 times IC50 incubated for 30 mins followed by 100 fold dilution to IC50 by dilution assay relative to control; conditions: 0.5 h
[17] = Cytotoxicity against human SH-SY5Y cells assessed as cell viability at […] after 24 hrs by MTT assay; type: cell-based; conditions: read-out: Activity
[18] = target: T2, Amine oxidase [flavin-containing] B; test: Inhibition of MAO-B (unknown origin)

| SMILES | IC50 [1] | IC50 [2] | IC50 (Acetylcholinesterase [3]) | Papp at 16 h (in vitro) | Ratio IC50 (Homo sapiens) | IC50 (Cholinesterase [4]) | other results |
| --- | --- | --- | --- | --- | --- | --- | --- |
| O=c1ccc2ccc(OCCCCCCN3CCN(CCCNc4c5c(nc6ccccc46)CCCC5)CC3)cc2o1 | 6050 nM | 9510 nM | 66.2 nM | 3.4 ×10⁻⁶ cm/s | 0.64 | 38.5 nM | – |
| O=c1ccc2ccc(OCCCN3CCN(CCNc4c5c(nc6ccccc46)CCCC5)CC3)cc2o1 | – | 2370 nM | 48.4 nM | 3.43 ×10⁻⁶ cm/s | > 84.4 | 16.1 nM | inhibition (INH) [5]: Not Active |
| O=c1ccc2ccc(OCCCCCN3CCN(CCNc4c5c(nc6ccccc46)CCCC5)CC3)cc2o1 | 9180 nM | 1590 nM | 139 nM | 6.5 ×10⁻⁶ cm/s | 5.77 | 32.2 nM | – |
| Cc1cc(=O)oc2cc(OCCN3CCN(CCCNc4c5c(nc6ccccc46)CCCC5)CC3)ccc12 | 66700 nM | 1770 nM | 39.1 nM | 1.9 ×10⁻⁶ cm/s | 37.7 | 50.8 nM | – |
| O=c1cc(C(F)(F)F)c2ccc(OCCN3CCN(CCCNc4c5c(nc6ccccc46)CCCC5)CC3)cc2o1 | – | 28800 nM | 67 nM | 5.58 ×10⁻⁶ cm/s | > 3.48 | 149 nM | inhibition (INH) [6]: Not Active |
| O=c1cc(-c2ccccc2)c2ccc(OCCN3CCN(CCCNc4c5c(nc6ccccc46)CCCC5)CC3)cc2o1 | – | – | 195 nM | 7.59 ×10⁻⁶ cm/s | – | 216 nM | inhibition (INH) [7]: Not Active; inhibition (INH) [6]: Not Active |
| O=c1ccc2ccc(OCCN3CCN(CCNc4c5c(nc6ccccc46)CCCC5)CC3)cc2o1 | – | 4560 nM | 69.4 nM | 2.13 ×10⁻⁶ cm/s | > 43.9 | 43.4 nM | inhibition (INH) [5]: Not Active |
| O=c1oc2cc(OCCN3CCN(CCCNc4c5c(nc6ccccc46)CCCC5)CC3)ccc2c2c1CCCC2 | 22000 nM | 1520 nM | 144 nM | 3.01 ×10⁻⁶ cm/s | 14.4 | 159 nM | – |
| O=c1ccc2ccc(OCCN3CCN(CCCNc4c5c(nc6ccccc46)CCCC5)CC3)cc2o1 | – | 2000 nM | 17.7 nM | 1.21 ×10⁻⁶ cm/s | > 100 | 38 nM | inhibition (INH) [5]: Not Active |
| O=c1ccc2ccc(OCCCCN3CCN(CCCNc4c5c(nc6ccccc46)CCCC5)CC3)cc2o1 | – | 3450 nM | 36 nM | 2.04 ×10⁻⁶ cm/s | > 58 | 23 nM | inhibition (INH) [5]: Not Active |
| COc1cc(=O)oc2cc(OCCN3CCN(CCCNc4c5c(nc6ccccc46)CCCC5)CC3)ccc12 | – | 5770 nM | 44.7 nM | 1.96 ×10⁻⁶ cm/s | > 17.3 | 116 nM | inhibition (INH) [6]: Not Active |
| O=c1ccc2ccc(OCCCCN3CCN(CCNc4c5c(nc6ccccc46)CCCC5)CC3)cc2o1 | – | 780 nM | 92.1 nM | 5.23 ×10⁻⁶ cm/s | > 256 | 20.9 nM | inhibition (INH) [5]: Not Active |
| CCOc1cc(=O)oc2cc(OCCN3CCN(CCCNc4c5c(nc6ccccc46)CCCC5)CC3)ccc12 | 78600 nM | 25700 nM | 51.1 nM | 2.74 ×10⁻⁶ cm/s | 3.05 | 86.6 nM | – |
| O=c1ccc2ccc(OCCCCCN3CCN(CCCNc4c5c(nc6ccccc46)CCCC5)CC3)cc2o1 | 10300 nM | 2290 nM | 48.4 nM | 2.37 ×10⁻⁶ cm/s | 4.52 | 41.8 nM | – |
| Cc1c(Cl)c(=O)oc2cc(OCCN3CCN(CCCNc4c5c(nc6ccccc46)CCCC5)CC3)ccc12 | 53100 nM | 700 nM | 31.9 nM | 5.37 ×10⁻⁶ cm/s | 75.7 | 72.6 nM | IC50 (Acetylcholinesterase [8]): 24.4 nM; IC50 (Cholinesterase [9]): 124 nM |
| O=c1ccc2ccc(OCCCN3CCN(CCCNc4c5c(nc6ccccc46)CCCC5)CC3)cc2o1 | – | 2260 nM | 24.2 nM | 1.45 ×10⁻⁶ cm/s | > 88.5 | 31.6 nM | inhibition (INH) [5]: Not Active |
| Cc1c(C)c2ccc(OCCN3CCN(CCCNc4c5c(nc6ccccc46)CCCC5)CC3)cc2oc1=O | 15100 nM | – | 33.6 nM | 4.75 ×10⁻⁶ cm/s | 62.8 | – | Ki (Acetylcholinesterase [10]): 34.4 nM; viability at 24 h, 1.63 µM [11]: 96.6%; viability at 24 h, 13 µM [12]: 77.1%; IC50 (Acetylcholinesterase [8]): 16.1 nM; inhibition (INH) [13]: Active; viability at 24 h, 3.25 µM [14]: 91.1%; IC50 (Cholinesterase [9]): 113 nM; viability at 24 h, 0.81 µM [15]: 101%; inhibition (INH) [16]: 79%; viability at 24 h, […] [17]: 85.7% |
| Cc1cc2ccc(OCCN3CCN(CCCNc4c5c(nc6ccccc46)CCCC5)CC3)cc2oc1=O | – | 540 nM | 56.6 nM | 2.95 ×10⁻⁶ cm/s | > 185 | 55 nM | inhibition (INH) [6]: Not Active |
| O=c1ccc2ccc(OCCCCCCN3CCN(CCNc4c5c(nc6ccccc46)CCCC5)CC3)cc2o1 | 6020 nM | 5280 nM | 330 nM | 6.96 ×10⁻⁶ cm/s | 1.14 | 58.6 nM | – |
| Cc1c(C)c2ccc(OCc3nnc(C(C)C)s3)cc2oc1=O [ATIBEPRONE] | – | – | – | – | – | – | IC50 [18]: 0.9 nM |
| Nc1cc(=O)oc2cc(OCCN3CCN(CCCNc4c5c(nc6ccccc46)CCCC5)CC3)ccc12 | – | 38000 nM | 38.7 nM | 0.78 ×10⁻⁶ cm/s | > 2.63 | 70.7 nM | inhibition (INH) [6]: Not Active |
